This note sets out measurements from ChEMBL document CHEMBL3046530, “Novel potential nonsedating H1 antagonists related to the gauche rotamer of PROS-NH-histamine” (Med Chem Res, 2009).

What all share (format): tissue-based
The target of assay [1] is Histamine H1 receptor (Cavia porcellus) (UniProt P31389). As to the kind of experiment: Inhibition of H1 receptor in Cavia porcellus Hartley (guinea pig) ileum assessed as inhibition of histamine-induced spasms incubated at 10 '-2 M 2 min prior histamine-challenge.
The target is the same in assay [2]. Description: Inhibition of H1 receptor in Cavia porcellus Hartley (guinea pig) ileum assessed as inhibition of histamine-induced spasms incubated at 10 '-3 M 2 min prior histamine-challenge.
The target is the same in assay [3]. Description: Inhibition of H1 receptor in Cavia porcellus Hartley (guinea pig) ileum assessed as inhibition of histamine-induced spasms incubated at 10 '-5 M 2 min prior histamine-challenge.
Assay [4] shares this target. As to the kind of experiment: Inhibition of H1 receptor in Cavia porcellus Hartley (guinea pig) ileum assessed as inhibition of histamine-induced spasms incubated at 10 '-6 M 2 min prior histamine-challenge.
For assay [5] the target is unchanged. As to the kind of experiment: Inhibition of H1 receptor in Cavia porcellus Hartley (guinea pig) ileum assessed as inhibition of histamine-induced spasms incubated at 10 '-4 M 2 min prior histamine-challenge.
Assay [6] shares this target. Description: Inhibition of H1 receptor in Cavia porcellus Hartley (guinea pig) ileum assessed as inhibition of histamine-induced spasms incubated 2 min prior histamine-challenge relative to acrivastine.
Assay [7] addresses Histamine H1 receptor (Cavia porcellus, UniProt P31389). As to the kind of experiment: Inhibition of H1 receptor in Cavia porcellus Hartley (guinea pig) ileum assessed as inhibition of histamine-induced spasms incubated 2 min prior histamine-challenge.

Molecules are shown by their SMILES.

Sequence of Histamine H1 receptor (P31389 whole entry): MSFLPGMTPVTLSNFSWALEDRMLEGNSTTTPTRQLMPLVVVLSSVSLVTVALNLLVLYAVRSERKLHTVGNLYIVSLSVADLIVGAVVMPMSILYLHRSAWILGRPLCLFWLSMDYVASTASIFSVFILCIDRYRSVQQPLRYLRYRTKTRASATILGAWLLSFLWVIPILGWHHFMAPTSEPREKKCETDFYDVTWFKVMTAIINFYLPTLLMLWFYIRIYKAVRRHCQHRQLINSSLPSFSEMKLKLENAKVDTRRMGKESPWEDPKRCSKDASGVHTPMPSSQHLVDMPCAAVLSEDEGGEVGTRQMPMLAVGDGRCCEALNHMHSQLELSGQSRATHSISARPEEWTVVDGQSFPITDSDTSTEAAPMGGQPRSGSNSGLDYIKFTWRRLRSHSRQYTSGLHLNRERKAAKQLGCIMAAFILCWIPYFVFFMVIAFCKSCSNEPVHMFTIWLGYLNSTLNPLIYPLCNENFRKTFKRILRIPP
Sequence of Histamine H1 receptor (Cavia porcellus) (P31389 whole entry): as above

Turning to `O=C1NC(=O)C(=CNC2CCCCC2)C(=O)N1`, the inhibition in assay [1] is 100%; in assay [2], 100%; in assay [3], 55.3%; in assay [4], 20%; in assay [5] it was 100%. Moreover, the Emax in assay [6] is 100%. In assay [7], the IC50 was found to be 7 µM.
Consider `CC(CO)(CO)Nc1nc2ccccc2[nH]1`, for which the inhibition worked out at 100% in assay [1]; 69% in assay [2]; 29.6% in assay [3]; 7.16% in assay [4]; 55% in assay [5]. The Emax in assay [6] amounted to 55%. The IC50 in assay [7] was 28.9 µM.
Turning to `CC(C)(CO)N1C(=O)c2ccccc2C1=O`, the inhibition in assay [1], in assay [2], in assay [3], in assay [4] and in assay [5] was 0% each time. Further, in assay [6], the Emax turned out to be 0%.
Consider `O=C1c2ccccc2C(=O)N1CC(O)CNC1CCCCC1` (racemic), for which the inhibition in assay [1] was found to be 78.3%; in assay [2] it was 66%; in assay [3], 33.3%; in assay [4], 12.9%; in assay [5], 37.5%. Further, the maximal effect (Emax) in assay [6] came to 37.5%.
In the case of `CC(C)CNCC(C)(C)N1C(=O)c2ccccc2C1=O`, the inhibition was found to be 22% in assay [1]; 20% in assay [2]; 16% in assay [3]; 14% in assay [4]; 18% in assay [5]. Moreover, in assay [6], the Emax was determined as 18%.
In the case of `CC(CO)(CO)NCCCN1C(=O)c2ccccc2C1=O`, the inhibition in assay [1] was found to be 100%; in assay [2], 69.2%; in assay [3] it was 28.4%; in assay [4] it was 5.45%; in assay [5] it was 54%. Further, in assay [6], the Emax was found to be 54%. Besides, the IC50 in assay [7] came to 80.2 µM.
Turning to `CC(C)(CO)NCC(C)(C)N1C(=O)c2ccccc2C1=O`, the inhibition was 100% in assay [1]; 62.9% in assay [2]; 0% in assay [3]; 0% in assay [4]; 20% in assay [5]. Further, the Emax in assay [6] turned out to be 20%.
Regarding `OCCN(Cc1nc2ccccc2[nH]1)c1nc2ccccc2[nH]1`, the inhibition is 65.5% in assay [1]; 60% in assay [2]; 10.5% in assay [3]; 0% in assay [4]; 11% in assay [5]. Besides, in assay [6], the Emax was found to be 11%.
As to `CCOC(=O)N1CCN(C=C2C(=O)NC(=O)NC2=O)CC1`, the inhibition in assay [1] is 25%; in assay [2], 25%; in assay [3], 9%; in assay [4] it was 8%; in assay [5] it was 25%. For the same molecule, in assay [6], the Emax was 25%.
As for `CC(CO)(CO)NCc1nc2ccccc2[nH]1`, the inhibition in assay [1] is 85.7%; in assay [2] it was 50%; in assay [3], 11.2%; in assay [4] it was 0%; in assay [5] it was 14.2%. The Emax in assay [6] turned out to be 14.2%.
With `Cc1ccc(/C(=C\CN2CCCC2)c2cccc(/C=C/C(=O)O)n2)cc1` [ACRIVASTINE], the inhibition in assay [1] turned out to be 100%; in assay [2], 100%; in assay [3], 60%; in assay [4] it was 16.6%; in assay [5], 100%. For the same molecule, in assay [6], the Emax amounted to 100%. The IC50 in assay [7] amounted to 6.12 µM.
Take `CC(C)(CO)NC=C1C(=O)NC(=O)NC1=O`: the inhibition in assay [1] amounted to 100%; in assay [2], 85.5%; in assay [3] it was 40%; in assay [4] it was 16.7%; in assay [5], 65%. For the same molecule, the Emax in assay [6] was 65%. For the same molecule, the IC50 in assay [7] is 6.15 µM.
For the molecule `O=C1NC(=O)C(=CN2CCOCC2)C(=O)N1`, the inhibition in assay [1] came to 100%; in assay [2], 100%; in assay [3], 57.3%; in assay [4], 12.8%; in assay [5] it was 100%. In assay [6], the Emax is 100%. In addition, the IC50 in assay [7] is 86.8 µM.

As usually defined, the inhibition is the drop in the measured response relative to a control, in per cent. As usually defined, the Emax is the size of the effect at its maximum, as opposed to the concentration needed. The IC50 is the midpoint of a concentration-inhibition curve.
